From patent US12077503B2, “Substituted cyclic amides and their use as herbicides” (FMC CORPORATION, priority 2015, dated 2024)

Assays:
Assay type in all cases: in vivo
[1] = system: Galium (catchweed bedstraw, Galium aparine); assay: Test A postemergence; conditions: for Galium plant response rating: 125 g ai/ha, postemergence, visual injury rating on 0 to 100 scale (0 no effect, 100 complete control), approx. 10 d; for Plant response rating, Galium: Postemergence, 500 g ai/ha, 0 to 100 scale where 0 is no effect and 100 is complete control
Source text: (§1) Seeds of plant species selected from barnyardgrass (Echinochloa crus-galli), Kochia (Kochia scoparia), ragweed (common ragweed, Ambrosia elatior), ryegrass, Italian (Italian ryegrass, Lolium multiflorum), crabgrass, large (Digitaria sanguinalis), giant foxtail (Setaria faberii), green foxtail (Setaria viridis), morningglory (Ipomoea spp.), pigweed (Amaranthus retroflexus), velvetleaf (Abutilon theophrasti), wheat (Triticum aestivum), and corn (Zea mays) were planted into a blend of loam soil and sand and treated preemergence with a directed soil spray using test chemicals formulated in anon-phytotoxic solvent mixture which included a surfactant.
(§2) At the same time, plants selected from these crop and weed species and also blackgrass (Alopecurus myosuroides), and Galium (catchweed bedstraw, Galium aparine) were planted in pots containing the same blend of loam soil and sand and treated with postemergence applications of test chemicals formulated in the same manner. Plants ranged in height from 2 to 10 cm and were in the one- to two-leaf stage for the postemergence treatment. Treated plants and untreated controls were maintained in a greenhouse for approximately 10 d, after which time all treated plants were compared to untreated controls and visually evaluated for injury. Plant response ratings, summarized in Table A, are based on a 0 to 100 scale where 0 is no effect and 100 is complete control. A dash (-) response means no test result.

[2] = system: ryegrass, Italian (Italian ryegrass, Lolium multiflorum); assay: Test A postemergence; conditions: for Ryegrass, Italian plant response rating: 125 g ai/ha, postemergence, visual injury rating on 0 to 100 scale (0 no effect, 100 complete control), approx. 10 d; for Plant response rating, Ryegrass, Italian: Postemergence, 500 g ai/ha, 0 to 100 scale where 0 is no effect and 100 is complete control
Source text: as §1, §2

[3] = system: blackgrass (Alopecurus myosuroides); assay: Test A postemergence; conditions: for Blackgrass plant response rating: 125 g ai/ha, postemergence, visual injury rating on 0 to 100 scale (0 no effect, 100 complete control), approx. 10 d; for Plant response rating, Blackgrass: Postemergence, 500 g ai/ha, 0 to 100 scale where 0 is no effect and 100 is complete control
Source text: as §1, §2

[4] = system: ragweed (common ragweed, Ambrosia elatior); assay: Test A postemergence; conditions: for Ragweed plant response rating: 125 g ai/ha, postemergence, visual injury rating on 0 to 100 scale (0 no effect, 100 complete control), approx. 10 d; for Plant response rating, Ragweed: Postemergence, 500 g ai/ha, 0 to 100 scale where 0 is no effect and 100 is complete control
Source text: as §1, §2

[5] = system: pigweed (Amaranthus retroflexus); assay: Test A postemergence; conditions: for Pigweed plant response rating: 125 g ai/ha, postemergence, visual injury rating on 0 to 100 scale (0 no effect, 100 complete control), approx. 10 d; for Plant response rating, Pigweed: Postemergence, 500 g ai/ha, 0 to 100 scale where 0 is no effect and 100 is complete control
Source text: as §1, §2

corn (Zea mays) = assay: Test A postemergence; conditions: for Corn plant response rating: 125 g ai/ha, postemergence, visual injury rating on 0 to 100 scale (0 no effect, 100 complete control), approx. 10 d; for Plant response rating, Corn: Postemergence, 500 g ai/ha, 0 to 100 scale where 0 is no effect and 100 is complete control
Source text: as §1, §2

Kochia (Kochia scoparia) [6] = assay: Test A postemergence; conditions: for Kochia plant response rating: 125 g ai/ha, postemergence, visual injury rating on 0 to 100 scale (0 no effect, 100 complete control), approx. 10 d; for Plant response rating, Kochia: Postemergence, 500 g ai/ha, 0 to 100 scale where 0 is no effect and 100 is complete control
Source text: as §1, §2

[7] = system: barnyardgrass (Echinochloa crus-galli); assay: Test A postemergence; conditions: for Barnyardgrass plant response rating: 125 g ai/ha, postemergence, visual injury rating on 0 to 100 scale (0 no effect, 100 complete control), approx. 10 d; for Plant response rating, Barnyardgrass: Postemergence, 500 g ai/ha, 0 to 100 scale where 0 is no effect and 100 is complete control
Source text: as §1, §2

[8] = system: giant foxtail (Setaria faberii); assay: Test A postemergence; conditions: for Foxtail, Giant plant response rating: 125 g ai/ha, postemergence, visual injury rating on 0 to 100 scale (0 no effect, 100 complete control), approx. 10 d; for Plant response rating, Foxtail, Giant: Postemergence, 500 g ai/ha, 0 to 100 scale where 0 is no effect and 100 is complete control
Source text: as §1, §2

[9] = system: wheat (Triticum aestivum); assay: Test A postemergence; conditions: for Wheat plant response rating: 125 g ai/ha, postemergence, visual injury rating on 0 to 100 scale (0 no effect, 100 complete control), approx. 10 d; for Plant response rating, Wheat: Postemergence, 500 g ai/ha, 0 to 100 scale where 0 is no effect and 100 is complete control
Source text: as §1, §2

[10] = system: sedge, umbrella (small-flower umbrella sedge, Cyperus difformis); assay: Test B flooded paddy test; conditions: Flood, 250 g ai/ha; 0 to 100 scale where 0 is no effect and 100 is complete control; 13 to 15 d
Method: (§3) Plant species in the flooded paddy test selected from rice (Oryra sativa), sedge, umbrella (small-flower umbrella sedge, Cyperus difformis), ducksalad (Heteranthera limosa), and barnyardgrass (Echinochloa crus-galli) were grown to the 2-leaf stage for testing. At time of treatment, test pots were flooded to 3 cm above the soil surface, treated by application of test compounds directly to the paddy water, and then maintained at that water depth for the duration of the test. Treated plants and controls were maintained in a greenhouse for 13 to 15 d, after which time all species were compared to controls and visually evaluated. Plant response ratings, summarized in Table B, are based on a scale of 0 to 100 where 0 is no effect and 100 is complete control. A dash (-) response means no test result.

[11] = system: barnyardgrass (Echinochloa crus-galli); assay: Test B flooded paddy test; conditions: Flood, 250 g ai/ha; 0 to 100 scale where 0 is no effect and 100 is complete control; 13 to 15 d
Method: as §3

[12] = system: ducksalad (Heteranthera limosa); assay: Test B flooded paddy test; conditions: Flood, 250 g ai/ha; 0 to 100 scale where 0 is no effect and 100 is complete control; 13 to 15 d
Method: as §3

rice (Oryra sativa) = assay: Test B flooded paddy test; conditions: Flood, 250 g ai/ha; 0 to 100 scale where 0 is no effect and 100 is complete control; 13 to 15 d
Method: as §3

[13] = system: ryegrass, Italian (Italian ryegrass, Lolium multiflorum); assay: Test A preemergence; conditions: Preemergence; for Plant response rating, Ryegrass, Italian: 125 g ai/ha, visual injury after approximately 10 d, 0 to 100 scale where 0 is no effect and 100 is complete control; for Ryegrass, Italian plant response rating (0 to 100 scale, 0 is no effect, 100 is complete control): 500 g ai/ha, visual injury approx. 10 d
Source text: as §1, §2

[14] = system: ragweed (common ragweed, Ambrosia elatior); assay: Test A preemergence; conditions: Preemergence; for Plant response rating, Ragweed: 125 g ai/ha, visual injury after approximately 10 d, 0 to 100 scale where 0 is no effect and 100 is complete control; for Ragweed plant response rating (0 to 100 scale, 0 is no effect, 100 is complete control): 500 g ai/ha, visual injury approx. 10 d
Source text: as §1, §2

[15] = system: pigweed (Amaranthus retroflexus); assay: Test A preemergence; conditions: Preemergence; for Plant response rating, Pigweed: 125 g ai/ha, visual injury after approximately 10 d, 0 to 100 scale where 0 is no effect and 100 is complete control; for Pigweed plant response rating (0 to 100 scale, 0 is no effect, 100 is complete control): 500 g ai/ha, visual injury approx. 10 d
Source text: as §1, §2

Kochia (Kochia scoparia) [16] = assay: Test A preemergence; conditions: Preemergence; for Plant response rating, Kochia: 125 g ai/ha, visual injury after approximately 10 d, 0 to 100 scale where 0 is no effect and 100 is complete control; for Kochia plant response rating (0 to 100 scale, 0 is no effect, 100 is complete control): 500 g ai/ha, visual injury approx. 10 d
Source text: as §1, §2

[17] = system: barnyardgrass (Echinochloa crus-galli); assay: Test A preemergence; conditions: Preemergence; for Plant response rating, Barnyardgrass: 125 g ai/ha, visual injury after approximately 10 d, 0 to 100 scale where 0 is no effect and 100 is complete control; for Barnyardgrass plant response rating (0 to 100 scale, 0 is no effect, 100 is complete control): 500 g ai/ha, visual injury approx. 10 d
Source text: as §1, §2

[18] = system: giant foxtail (Setaria faberii); assay: Test A preemergence; conditions: Preemergence; for Plant response rating, Foxtail, Giant: 125 g ai/ha, visual injury after approximately 10 d, 0 to 100 scale where 0 is no effect and 100 is complete control; for Foxtail, Giant plant response rating (0 to 100 scale, 0 is no effect, 100 is complete control): 500 g ai/ha, visual injury approx. 10 d
Source text: as §1, §2

SMILES	Galium plant response rating [1]	Plant response rating, Galium [1]	Ryegrass, Italian plant response rating [2]	Plant response rating, Ryegrass, Italian [2]	Blackgrass plant response rating [3]	Plant response rating, Blackgrass [3]	Ragweed plant response rating [4]	Plant response rating, Ragweed [4]	Pigweed plant response rating [5]	Plant response rating, Pigweed [5]	Corn plant response rating (corn (Zea mays))	Plant response rating, Corn (corn (Zea mays))	Kochia plant response rating (Kochia (Kochia scoparia) [6])	Plant response rating, Kochia (Kochia (Kochia scoparia) [6])	Barnyardgrass plant response rating [7]	Plant response rating, Barnyardgrass [7]	Foxtail, Giant plant response rating [8]	Plant response rating, Foxtail, Giant [8]	Wheat plant response rating [9]	Plant response rating, Wheat [9]	also measured
O=C1NCC(c2ccc(C3CC3)cc2)C1C(=O)Nc1cccc(F)c1F (racemic) [Compound 501]	0	0	0	20	30	40	0	0	0	0	0	30	0	0	50	80	70	80	0	0	Plant response rating, Sedge, Umbrella [10]: 0; Plant response rating, Barnyardgrass [11]: 20; Plant response rating, Ducksalad [12]: 85; Plant response rating, Rice (rice (Oryra sativa)): 0; Plant response rating, Ryegrass, Italian [13]: 0; Ryegrass, Italian plant response rating (0 to 100 scale, 0 is no effect, 100 is complete control) [13]: 0; Plant response rating, Ragweed [14]: 0; Ragweed plant response rating (0 to 100 scale, 0 is no effect, 100 is complete control) [14]: 50; Plant response rating, Pigweed [15]: 0; Pigweed plant response rating (0 to 100 scale, 0 is no effect, 100 is complete control) [15]: 20; Plant response rating, Kochia (Kochia (Kochia scoparia) [16]): 0; Kochia plant response rating (0 to 100 scale, 0 is no effect, 100 is complete control) (Kochia (Kochia scoparia) [16]): 30; Plant response rating, Barnyardgrass [17]: 80; Barnyardgrass plant response rating (0 to 100 scale, 0 is no effect, 100 is complete control) [17]: 90; Plant response rating, Foxtail, Giant [18]: 80; Foxtail, Giant plant response rating (0 to 100 scale, 0 is no effect, 100 is complete control) [18]: 90
Cc1ccc(C2CNC(=O)C2C(=O)Nc2ccc(F)cc2F)c(F)c1 (racemic) [Compound 508]	0	20	0	0	0	0	0	0	0	20	0	20	0	20	70	90	0	40	0	20	Plant response rating, Sedge, Umbrella [10]: 0; Plant response rating, Barnyardgrass [11]: 0; Plant response rating, Ducksalad [12]: 50; Plant response rating, Rice (rice (Oryra sativa)): 0; Plant response rating, Ryegrass, Italian [13]: 0; Ryegrass, Italian plant response rating (0 to 100 scale, 0 is no effect, 100 is complete control) [13]: 0; Plant response rating, Ragweed [14]: 0; Ragweed plant response rating (0 to 100 scale, 0 is no effect, 100 is complete control) [14]: 0; Plant response rating, Pigweed [15]: 0; Pigweed plant response rating (0 to 100 scale, 0 is no effect, 100 is complete control) [15]: 0; Plant response rating, Kochia (Kochia (Kochia scoparia) [16]): 0; Kochia plant response rating (0 to 100 scale, 0 is no effect, 100 is complete control) (Kochia (Kochia scoparia) [16]): 0; Plant response rating, Barnyardgrass [17]: 70; Barnyardgrass plant response rating (0 to 100 scale, 0 is no effect, 100 is complete control) [17]: 90; Plant response rating, Foxtail, Giant [18]: 40; Foxtail, Giant plant response rating (0 to 100 scale, 0 is no effect, 100 is complete control) [18]: 70
O=C1NCC(c2c(F)cccc2F)C1C(=O)Nc1cccc(F)c1F (racemic) [Compound 516]	0	0	0	0	0	0	0	0	0	0	0	0	0	0	0	70	0	70	0	0	Plant response rating, Sedge, Umbrella [10]: 0; Plant response rating, Barnyardgrass [11]: 0; Plant response rating, Ducksalad [12]: 0; Plant response rating, Rice (rice (Oryra sativa)): 0; Plant response rating, Ryegrass, Italian [13]: 0; Ryegrass, Italian plant response rating (0 to 100 scale, 0 is no effect, 100 is complete control) [13]: 0; Plant response rating, Ragweed [14]: 0; Ragweed plant response rating (0 to 100 scale, 0 is no effect, 100 is complete control) [14]: 0; Plant response rating, Pigweed [15]: 0; Pigweed plant response rating (0 to 100 scale, 0 is no effect, 100 is complete control) [15]: 0; Plant response rating, Kochia (Kochia (Kochia scoparia) [16]): 0; Kochia plant response rating (0 to 100 scale, 0 is no effect, 100 is complete control) (Kochia (Kochia scoparia) [16]): 0; Plant response rating, Barnyardgrass [17]: 40; Barnyardgrass plant response rating (0 to 100 scale, 0 is no effect, 100 is complete control) [17]: 80; Plant response rating, Foxtail, Giant [18]: 70; Foxtail, Giant plant response rating (0 to 100 scale, 0 is no effect, 100 is complete control) [18]: 90
